This is an account of results in patent US20120184542A1, “PYRIDO PYRIMIDINES” (priority 2011, published 2012).

The target in assay [1] is T1, Human DYRK1A (Homo sapiens, UniProt Q13627).
T1 construct: purchased Invitrogen PV3997
The assay is described as follows: DYRK1A Kinase TR-FRET (IMAP-Tb) Assay. The class given is biochemical. To be noted: for inhibition at 10 µM: read-out: % inhibition of DYRK1A at 10 μM test compound concentration; for IC50: TR-FRET (IMAP-Tb), ATP 70 μM, 37° C. 60 minutes, read-out: Enzyme IC50 (μM) DYRK1A. From the text: The kinase TR-FRET (IMAP-Tb) assay uses a fluorescence labeled substrate peptide in the kinase reaction. Upon phosphorylation by the kinase, phosphopeptide is produced, which will be detected by the binding solution provided in IMAP TR-FRET binding kit. After the completion of the kinase reaction, the reaction will be stopped by adding the binding solution containing terbium tracer. This tracer is immobilized on the surface of the IMAP beads, which also contain metal ions on the beads that bind to the phospho-groups of the products. Thus the phosphorylated product of the reaction can enter into close proximity to the tracer, producing resonance energy transfer. Due to the long lifetime of terbium (Tb) fluorescence the detection can be run in time resolved mode, which virtually eliminates fluorescence interference from assay components or compounds.
The TR-FRET signal measurement from this assay, given as an IC50 measurement, is a measure of a test compound's ability to interfere with the phosphorylation of the peptide substrate, that is it inhibits the phosphorylation of the substrate peptide by DYRK1A, and is thus a measure of the test compound's ability to inhibit the activity of DYRK1A.
• 1. Human DYRK1A: from Invitrogen. Part #PV3997 • 2. Substrate Peptide: […] • 3. IMAP TR-FRET IPP Explorer Kit: from Molecular Devices. Part #R8157 • 4. Kinase Assay Buffer (KAB): 10 mM HEPES pH 7.0, 50 mM NaCl, 5 mM MgCl2, 1 mM DTT, 1 mM NaVO4, 200 μg/mL BSA (0.02%) • 5. Assay Plate: Remp polypropylene clear 384-well microplate. […] Detection Plate: Costa black 384-well microplate.
• 1. Transfer 1.5 μL of 20× compound solution to each well of an assay plate. • 2. Add to each well 22.5 μL of KAB Buffer. • 3. Add to each well 3 μL of the solution of DYRK1A and ATP. […] Add to each well 3 μL of the substrate peptide. The assay concentration is 1.0 μM • 5. Incubate the assay plates at 37° C. for 60 minutes. • 6. Add 18 μL of Detection Solution (1:800 diluted Progress bead stock, 1:400 diluted Tb stock, 80% Buffer A, and 20% Buffer B) into each well of detection plates. • 7. Transfer 6 μL of assay solution from the assay plate to the detection plate. • 8. Shake detection plates for 30 minutes. • 9. Read plates in Envision with wavelength set at excitation 340 nm for Tb, emission 490 nm, and […].
In general terms: TR-FRET usually uses a lanthanide donor and a delayed reading to cut background.

The target in assay [2] is T2, Human DYRK1B (Homo sapiens, UniProt Q9Y463).
T2 construct: purchased Invitrogen PR8350B (former PV4649)
The assay is described as follows: DYRK1B Kinase TR-FRET (IMAP-Tb) Assay. It is filed as biochemical. To be noted: for inhibition at 10 µM: read-out: % inhibition of DYRK1B at 10 μM test compound concentration; for IC50: TR-FRET (IMAP-Tb), ATP 70 μM, 37° C. 60 minutes, read-out: Enzyme IC50 (μM) DYRK1B.

Where only a bound is given, the exact number is not on record here.

T2 sequence (Q9Y463 whole entry): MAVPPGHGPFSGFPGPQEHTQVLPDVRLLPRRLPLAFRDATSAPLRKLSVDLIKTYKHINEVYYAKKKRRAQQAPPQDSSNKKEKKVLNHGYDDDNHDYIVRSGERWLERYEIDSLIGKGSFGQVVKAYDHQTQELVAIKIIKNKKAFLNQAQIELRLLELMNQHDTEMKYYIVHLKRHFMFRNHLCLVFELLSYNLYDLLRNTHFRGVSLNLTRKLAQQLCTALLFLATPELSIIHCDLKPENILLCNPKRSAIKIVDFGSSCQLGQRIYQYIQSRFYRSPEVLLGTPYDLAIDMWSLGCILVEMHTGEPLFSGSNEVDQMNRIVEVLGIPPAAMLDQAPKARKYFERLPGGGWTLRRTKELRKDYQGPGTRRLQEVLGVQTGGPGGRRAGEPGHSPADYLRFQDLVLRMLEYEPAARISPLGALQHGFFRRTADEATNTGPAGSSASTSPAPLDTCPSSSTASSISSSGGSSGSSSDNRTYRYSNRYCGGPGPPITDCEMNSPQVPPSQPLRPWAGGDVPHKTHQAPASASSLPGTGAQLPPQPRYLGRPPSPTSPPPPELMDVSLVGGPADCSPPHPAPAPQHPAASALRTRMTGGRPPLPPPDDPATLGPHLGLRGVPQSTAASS

Turning to `CC(NC(=O)c1ccc(Cl)c(NC(=O)c2cc3cnc(N4CCOCC4)nc3[nH]c2=O)c1)c1cccc(Cl)c1` (racemic) [Example 143, 2-Morpholin-4-yl-7-oxo-7,8-dihydro-pyrido[2,3-d]pyrimidine-6-carboxylic acid {2-chloro-5-[1-(3-chloro-phenyl)-ethylcarbamoyl]-phenyl}-amide], the inhibition at 10 µM in assay [1] came to 57%; in assay [2], 24%.

Turning to `C[C@H](NC(=O)c1ccc(Cl)c(NC(=O)c2cc3cnc(N4CCOCC4)nc3[nH]c2=O)c1)c1ccccc1` [Example 157, 2-Morpholin-4-yl-7-oxo-7,8-dihydro-pyrido[2,3-d]pyrimidine-6-carboxylic acid [2-chloro-5-((S)-1-phenyl-ethylcarbamoyl)-phenyl]-amide], the IC50 in assay [1] and in assay [2] was greater than 10 µM each time.

Turning to `CCOCCN(CCOCC)c1ncc2cc(C(=O)Nc3cc(C(=O)OC)ccc3Cl)c(=O)[nH]c2n1` [Example 40, 3-({2-[Bis-(2-ethoxy-ethyl)-amino]-7-oxo-7,8-dihydro-pyrido[2,3-d]pyrimidine-6-carbonyl}-amino)-4-chloro-benzoic acid methyl ester], the concentration for half-maximal inhibition (IC50) (in general, the concentration at which inhibition is half-maximal) in assay [1] amounted to 0.208 µM; in assay [2], 0.22 µM.

In the case of `CN1CCN(c2ncc3cc(C(=O)Nc4cc(C(=O)N[C@H](CN)Cc5cccc(F)c5)ccc4Cl)c(=O)[nH]c3n2)CC1` [Example 187, 2-(4-Methyl-piperazin-1-yl)-7-oxo-7,8-dihydro-pyrido[2,3-d]pyrimidine-6-carboxylic acid {5-[(S)-1-aminomethyl-2-(3-fluoro-phenyl)-ethylcarbamoyl]-2-chloro-phenyl}-amide], the IC50 in assay [1] came to 0.13 µM; in assay [2] it was 0.202 µM.

As for `CN(Cc1cccc(Cl)c1)C(=O)c1ccc(Cl)c(NC(=O)c2cc3cnc(N4CCCCC4)nc3[nH]c2=O)c1` [Example 64, 7-oxo-2-piperidin-1-yl-7,8-dihydro-pyrido[2,3-d]pyrimidine-6-carboxylic acid {2-chloro-5-[(3-chloro-benzyl)-methyl-carbamoyl]-phenyl}-amide], the IC50 in assay [1] was 0.903 µM. The inhibition at 10 µM in assay [2] was found to be 46.6%.

Take `COc1ncc2cc(C(=O)Nc3cc(C(=O)OCc4ccccc4Cl)ccc3Cl)c(=O)[nH]c2n1` [Example 52, 4-Chloro-3-[(2-methoxy-7-oxo-7,8-dihydro-pyrido[2,3-d]pyrimidine-6-carbonyl)-amino]-benzoic acid 2-chloro-benzyl ester]: the 50% inhibitory concentration (IC50) in assay [1] turned out to be 1.19 µM; in assay [2] it was 5.25 µM.

Take `COc1ncc2cc(C(=O)Nc3cc(C(=O)NCc4cccc(Cl)c4)ccc3C)c(=O)[nH]c2n1` [Example 62, 2-Methoxy-7-oxo-7,8-dihydro-pyrido[2,3-d]pyrimidine-6-carboxylic acid [5-(3-chloro-benzylcarbamoyl)-2-methyl-phenyl]-amide]: the IC50 in assay [1] was 0.119 µM; in assay [2] it was 0.437 µM.

Consider `COc1ncc2cc(C(=O)Nc3cc(C(=O)O)ccc3Cl)c(=O)[nH]c2n1` [Example 22, 4-Chloro-3-[(2-methoxy-7-oxo-7,8-dihydro-pyrido[2,3-d]pyrimidine-6-carbonyl)-amino]-benzoic acid], for which the IC50 was 0.601 µM in assay [1] and 2.73 µM in assay [2].

`COc1ncc2cc(C(=O)Nc3cc(C(=O)N(C)Cc4cccc(Cl)c4)ccc3C)c(=O)[nH]c2n1` [Example 63, 2-Methoxy-7-oxo-7,8-dihydro-pyrido[2,3-d]pyrimidine-6-carboxylic acid {5-[(3-chloro-benzyl)-methyl-carbamoyl]-2-methyl-phenyl}-amide]: the concentration for half-maximal inhibition (IC50) in assay [1] stood at 4.58 µM. Moreover, the inhibition at 10 µM in assay [2] worked out at 28%.

`COc1ncc2cc(C(=O)Nc3cc(C(=O)N(C)Cc4ccccc4)ccc3Cl)c(=O)[nH]c2n1` [Example 60, 2-Methoxy-7-oxo-7,8-dihydro-pyrido[2,3-d]pyrimidine-6-carboxylic acid [5-(benzyl-methyl-carbamoyl)-2-chloro-phenyl]-amide]: the IC50 was found to be 0.561 µM in assay [1] and 0.357 µM in assay [2].

Regarding `CCOCCNc1ncc2cc(C(=O)Nc3cc(C(=O)OC)ccc3Cl)c(=O)[nH]c2n1` [Example 42, 4-Chloro-3-{[2-(2-ethoxy-ethylamino)-7-oxo-7,8-dihydro-pyrido[2,3-d]pyrimidine-6-carbonyl]-amino}-benzoic acid methyl ester], the inhibition at 10 µM in assay [1] amounted to 60%; in assay [2] it was 39%.

With `COC(=O)c1ccc(Cl)c(NC(=O)c2cc3cnc(N4CCOCC4)nc3[nH]c2=O)c1` [Example 33, 4-Chloro-3-[(2-morpholin-4-yl-7-oxo-7,8-dihydro-pyrido[2,3-d]pyrimidine-6-carbonyl)-amino]-benzoic acid methyl ester], the half-inhibitory concentration (IC50) in assay [1] was determined as 0.095 µM; in assay [2] it was 0.128 µM.

Regarding `CCN(CC)CCOc1ncc2cc(C(=O)Nc3cc(C(=O)OC)ccc3Cl)c(=O)[nH]c2n1` [Example 45, 4-Chloro-3-{[2-(2-diethylamino-ethoxy)-7-oxo-7,8-dihydro-pyrido[2,3-d]pyrimidine-6-carbonyl]amino}-benzoic acid methyl ester], the values for the IC50 in assay [1] and in assay [2] were 0.729 µM and 0.85 µM, respectively.

With `COc1ncc2cc(C(=O)Nc3cc(C(=O)NC(CCN)C4CCCC4)ccc3Cl)c(=O)[nH]c2n1` (stereo not drawn) [Example 198, 2-Methoxy-7-oxo-7,8-dihydro-pyrido[2,3-d]pyrimidine-6-carboxylic acid [5-(3-amino-1-cyclopentyl-propylcarbamoyl)-2-chloro-phenyl]-amide], the figures for the IC50 in assay [1] and in assay [2] were 0.47 µM and 0.36 µM, respectively.

Consider `COc1ncc2cc(C(=O)Nc3cc(C(=O)NCc4cccc(C(F)(F)F)c4)ccc3Cl)c(=O)[nH]c2n1` [Example 59, 2-Methoxy-7-oxo-7,8-dihydro-pyrido[2,3-d]pyrimidine-6-carboxylic acid [2-chloro-5-(3-trifluoromethyl-benzylcarbamoyl)-phenyl]-amide], for which the IC50 in assay [1] was 0.0723 µM; in assay [2] it was 0.222 µM.

With `COc1ncc2cc(C(=O)Nc3cc(C(=O)NCc4ccccc4Cl)ccc3Cl)c(=O)[nH]c2n1` [Example 47, 2-Methoxy-7-oxo-7,8-dihydro-pyrido[2,3-d]pyrimidine-6-carboxylic acid [2-chloro-5-(2-chloro-benzylcarbamoyl)-phenyl]-amide], the values for the IC50 in assay [1] and in assay [2] were 0.0343 µM and 0.0908 µM, respectively.

In the case of `CN1CCN(c2ncc3cc(C(=O)Nc4cc(C(=O)NCc5cc(F)ccc5F)ccc4Cl)c(=O)[nH]c3n2)CC1` [Example 178, 2-(4-Methyl-piperazin-1-yl)-7-oxo-7,8-dihydro-pyrido[2,3-d]pyrimidine-6-carboxylic acid [2-chloro-5-(2,5-difluoro-benzylcarbamoyl)-phenyl]amide], the IC50 in assay [1] stood at 0.0748 µM; in assay [2], 0.356 µM.

On to `O=C(NCc1cccc(Cl)c1)c1ccc(Cl)c(NC(=O)c2cc3cnc(N4CCC(O)CC4)nc3[nH]c2=O)c1` [Example 92, 2-(4-Hydroxy-piperidin-1-yl)-7-oxo-7,8-dihydro-pyrido[2,3-d]pyrimidine-6-carboxylic acid [2-chloro-5-(3-chloro-benzylcarbamoyl)-phenyl]-amide], for which the values for the IC50 in assay [1] and in assay [2] were 0.0202 µM and 0.035 µM, respectively.

For the compound `COC(=O)c1ccc(Br)c(NC(=O)c2cc3cnc(OC)nc3[nH]c2=O)c1` [Example 48, 4-Bromo-3-[(2-methoxy-7-oxo-7,8-dihydro-pyrido[2,3-d]pyrimidine-6-carbonyl)-amino]-benzoic acid methyl ester], the IC50 in assay [1] amounted to 0.205 µM; in assay [2] it was 0.217 µM.

Turning to `COc1ncc2cc(C(=O)Nc3cc(C(=O)NC(CN)C4CCCC4)ccc3Cl)c(=O)[nH]c2n1` (stereo not drawn) [Example 200, 2-Methoxy-7-oxo-7,8-dihydro-pyrido[2,3-d]pyrimidine-6-carboxylic acid [5-(2-amino-1-cyclopentyl-ethylcarbamoyl)-2-chloro-phenyl]-amide], the IC50 in assay [1] is 0.54 µM; in assay [2] it was 0.47 µM.

For `COc1ncc2cc(C(=O)Nc3cc(C(=O)NCc4ccncc4)ccc3Cl)c(=O)[nH]c2n1` [Example 68, 2-Methoxy-7-oxo-7,8-dihydro-pyrido[2,3-d]pyrimidine-6-carboxylic acid {2-chloro-5-[(pyridin-4-ylmethyl)-carbamoyl]-phenyl}-amide], the IC50 was found to be 0.251 µM in assay [1] and 0.261 µM in assay [2].
